Experimental data: patent US20250115634A1, “LIGAND, METHOD FOR PREPARING SAME, AND USE THEREOF” (priority 2022, published 2025)

Tests used:
ASGPR receptor [1] = molecular target: T1, ASGPR receptor (Mus musculus, UniProt P24721+P34927); assay: Binding of Cy5-labelled ligands to ASGPR on primary mouse liver cells (Kd); conditions: C57 mouse primary liver cells, incubated 37° C. in the dark for 30 min, trypsin to remove surface fluorescence
T1 construct: C57 mouse primary liver cells were isolated; endogenous in cells; host or cells: C57 mouse primary liver cells
T1 sequence (P34927 1-284): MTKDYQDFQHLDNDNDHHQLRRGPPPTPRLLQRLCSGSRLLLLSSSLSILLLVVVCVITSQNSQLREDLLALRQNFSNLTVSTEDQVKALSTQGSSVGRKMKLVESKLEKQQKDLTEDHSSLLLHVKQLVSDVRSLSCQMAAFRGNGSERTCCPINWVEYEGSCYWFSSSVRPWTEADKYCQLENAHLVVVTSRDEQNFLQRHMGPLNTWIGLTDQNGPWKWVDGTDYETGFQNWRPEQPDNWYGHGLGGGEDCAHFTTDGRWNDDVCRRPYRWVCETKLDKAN
T1 sequence (P24721 1-301): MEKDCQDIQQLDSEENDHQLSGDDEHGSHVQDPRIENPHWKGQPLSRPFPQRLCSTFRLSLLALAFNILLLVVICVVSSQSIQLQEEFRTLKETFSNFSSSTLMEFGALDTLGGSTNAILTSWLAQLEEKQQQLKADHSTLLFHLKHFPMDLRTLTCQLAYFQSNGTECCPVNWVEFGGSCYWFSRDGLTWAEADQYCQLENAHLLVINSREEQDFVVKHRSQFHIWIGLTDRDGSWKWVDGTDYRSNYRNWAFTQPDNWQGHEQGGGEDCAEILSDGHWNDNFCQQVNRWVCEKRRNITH
Experimental: (§1) The binding rate of the ligand of the present disclosure to the ASGPR receptor of liver cancer cells was tested, with the ligand with hepatocellular ASGPR-targeting property, loaded in Inclisiran, a small interfering nucleic acid drug marketed by Alnylam, as a positive control (PC).
The ligand-receptor dissociation constant (Kd, which is the drug concentration required for half of the maximum effect, i.e. 50% of the receptors are occupied) was used as a measure of ligand-receptor binding capacity; and the lower the Kd value, the higher the binding capacity.
C57 mouse primary liver cells were isolated, and the cells were in a good state, had viability of 92%, and were at a density of 2×10^5 cells/400 μL.
The test compounds were dissolved with PBS and then diluted with complete medium for primary liver cells to various concentration gradients.
The cells was added with 100 μL of the test compound solution prepared according to the set concentration gradients (the test compounds was first prepared with PBS into a stock solution, which was then diluted to the set concentration gradients with complete medium) and incubated at 37° C. in the dark for 30 min.
After incubation, the cells were washed once with 500 μL of PBS.
The cells were added with typsin to remove fluorescence on the cell surface.
The cells were washed again with 500 μL of PBS and detected on machine.

ASGPR receptor [2] = molecular target: T2, ASGPR receptor (Homo sapiens, UniProt P07306+P07307); assay: Binding of Cy5-labelled ligands to ASGPR on HepG2 cell line (Kd); conditions: HepG2 cells, incubated at room temperature in the dark for 30 min
T2 construct: HepG2 cells grown to confluence of greater than 80%; endogenous in cells; host or cells: HepG2
T2 sequence (P07306 1-291): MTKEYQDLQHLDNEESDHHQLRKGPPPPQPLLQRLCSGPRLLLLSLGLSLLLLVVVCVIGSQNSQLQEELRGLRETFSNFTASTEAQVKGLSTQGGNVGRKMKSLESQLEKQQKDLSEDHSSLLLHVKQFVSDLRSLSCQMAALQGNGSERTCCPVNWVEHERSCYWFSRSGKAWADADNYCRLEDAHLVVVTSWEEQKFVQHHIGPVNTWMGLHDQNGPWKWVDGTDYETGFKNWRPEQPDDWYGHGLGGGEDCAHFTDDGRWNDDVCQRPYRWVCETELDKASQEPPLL
T2 sequence (P07307 1-311): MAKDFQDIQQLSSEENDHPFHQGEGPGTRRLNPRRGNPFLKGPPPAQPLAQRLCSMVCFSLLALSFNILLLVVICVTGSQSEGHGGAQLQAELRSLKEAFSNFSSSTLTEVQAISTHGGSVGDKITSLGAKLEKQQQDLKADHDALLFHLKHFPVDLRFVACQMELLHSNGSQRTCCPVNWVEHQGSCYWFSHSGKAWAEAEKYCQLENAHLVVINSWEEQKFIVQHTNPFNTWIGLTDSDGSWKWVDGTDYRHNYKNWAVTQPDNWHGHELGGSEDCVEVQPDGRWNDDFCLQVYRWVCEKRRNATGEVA
Experimental: as §1
The ligand-receptor dissociation constant (Kd, which is the drug concentration required for half of the maximum effect, i.e. 50% of the receptors are occupied) was used as a measure of ligand-receptor binding capacity, and the lower the Kd value, the higher the binding capacity.
• 1. HepG2 cells grown to confluence of greater than 80% and in a good state were digested, centrifuged and counted. • 2. The test compounds were diluted with PBS to various concentration gradients. • 3. The cells were washed once with PBS, added with 100 μL of the prepared compounds, and incubated at room temperature in the dark for 30 min. • 4. After incubation, the cells were washed twice with 1 mL of PBS and detected on machine.

SMILES | Kd (ASGPR receptor [1]) [nM] | Kd (ASGPR receptor [2]) [nM]
CC[N+]1=C(/C=C/C=C/C=C2/c3ccccc3N(CCCCCC(=O)NCCNC(=O)CCCCCCCCCCC(=O)N3C[C@H](OCC(=O)NCCOCCOC4OC(CO)C(O)C(O)C4NC(C)=O)C[C@H]3C(=O)NC(C)(COCCC(=O)NCCOCCOC3OC(CO)C(O)C(O)C3NC(C)=O)COCCC(=O)NCCOCCOC3OC(CO)C(O)C(O)C3NC(C)=O)C2(C)C)C(C)(C)c2ccccc21 (some centres unmarked) [TC10A-Cy5] | 0.867 | –
CC[N+]1=C(/C=C/C=C/C=C2/c3ccccc3N(CCCCCC(=O)NCCNC(=O)CCC(=O)Nc3cc(C(=O)NCCOCCOC4OC(CO)C(O)C(O)C4NC(C)=O)cc(C(=O)Nc4cc(C(=O)NCCOCCOC5OC(CO)C(O)C(O)C5NC(C)=O)cc(C(=O)NCCOCCOC5OC(CO)C(O)C(O)C5NC(C)=O)c4)c3)C2(C)C)C(C)(C)c2ccccc21 (centres unmarked) [TC17A-Cy5] | 1.26 | –
CC[N+]1=C(/C=C/C=C/C=C2/c3ccccc3N(CCCCCC(=O)NCCNC(=O)CCNC(=O)[C@H](CNC(=O)C(C)(COCC(=O)NCCOCCOC3OC(CO)C(O)C(O)C3NC(C)=O)COCC(=O)NCCOCCOC3OC(CO)C(O)C(O)C3NC(C)=O)NC(=O)C(C)(COCC(=O)NCCOCCOC3OC(CO)C(O)C(O)C3NC(C)=O)COCC(=O)NCCOCCOC3OC(CO)C(O)C(O)C3NC(C)=O)C2(C)C)C(C)(C)c2ccccc21 (some centres unmarked) [TEC02A-Cy5] | 0.198 | 20.7

Second part, led by results:

Kd (ASGPR receptor [1]) [nM] | SMILES | Kd (ASGPR receptor [2]) [nM]
0.408 | CC[N+]1=C(/C=C/C=C/C=C2/c3ccccc3N(CCCCCC(=O)NCCNC(=O)CCCCCCCCCCCNC(COCCC(=O)NCCCNC(=O)CCCCOC3OC(CO)C(O)C(O)C3NC(C)=O)(COCCC(=O)NCCCNC(=O)CCCCOC3OC(CO)C(O)C(O)C3NC(C)=O)COCCC(=O)NCCCNC(=O)CCCCOC3OC(CO)C(O)C(O)C3NC(C)=O)C2(C)C)C(C)(C)c2ccccc21 (centres unmarked) [PC-Cy5, reference compound] | 40.2
0.696 | CC[N+]1=C(/C=C/C=C/C=C2/c3ccccc3N(CCCCCC(=O)NCCCC(=O)CCCCCCCCCCC(=O)N3C[C@H](OCC(=O)NCCOCCOCCOC4OC(CO)C(O)C(O)C4NC(C)=O)C[C@H]3C(=O)NC(COCCC(=O)NCCOCCOCCOC3OC(CO)C(O)C(O)C3NC(C)=O)COCCC(=O)NCCOCCOCCOC3OC(CO)C(O)C(O)C3NC(C)=O)C2(C)C)C(C)(C)c2ccccc21 (some centres unmarked) [TC12A-Cy5] | –
0.496 | CC[N+]1=C(/C=C/C=C/C=C2/c3ccccc3N(CCCCCC(=O)NCCNC(=O)CCCCCCCCCCCNC(=O)[C@H](CNC(=O)C(C)(COCC(=O)NCCOCCOC3OC(CO)C(O)C(O)C3NC(C)=O)COCC(=O)NCCOCCOC3OC(CO)C(O)C(O)C3NC(C)=O)NC(=O)C(C)(CCCC(=O)NCCOCCOC3OC(CO)C(O)C(O)C3NC(C)=O)COCC(=O)NCCOCCOC3OC(CO)C(O)C(O)C3NC(C)=O)C2(C)C)C(C)(C)c2ccccc21 (some centres unmarked) [TEC06A-Cy5] | –
